From a melting point compilation (Tetko et al.; mined from patent text by program, amines drawn as free bases though some values may be those of a salt)

`COC(=O)CCCc1cc2nc(Cl)ccc2n1S(=O)(=O)c1cccc(-c2cscn2)c1` showed a melting point of 147 to 148 °C. Compound `CC(C)(C)C(NC(=O)c1cccc(Cl)c1)Nc1c(Nc2cnccn2)c(=O)c1=O` (stereo unspecified) has a melting point of 245 to 247 °C. For `CC1(C)CCC(C)(C#N)c2ccccc21` (stereo unspecified), the melting point was 46 °C. `CC(C)(C)c1nc2cc(N3CCCC3)c([N+](=O)[O-])cc2s1` showed a melting point of 115 to 117 °C. Compound `CCCc1nn(-c2ccc(C(F)(F)F)cn2)cc1C=O` has a melting point of 52 to 53 °C. With `CN(C)c1ccc(C2(C#N)CCCC2)cc1` the melting point was 73 to 74 °C. `COc1ccc(CNc2nc(C)nc(C)c2Cl)cc1O` showed a melting point of 165 to 168 °C. `N#CC1(Nc2ccc(Cl)cc2)CCN(C(=O)c2cc(C(F)(F)F)cc(C(F)(F)F)c2)CC1` showed a melting point of 176 to 180 °C. For `CCCNC(=O)NS(=O)(=O)c1ccccc1I`, the melting point was 211 to 212 °C. Compound `COc1ccc2c(c1)NC1(CCN(Cc3ccccc3)CC1)c1cccn1-2` has a melting point of 123 to 124 °C. Work on `CCS(=O)(=O)NCCCCn1c(=O)c2c(C)nc3cccc1n32` yielded a melting point of 144 to 145 °C. For `NS(=O)(=O)c1cc2c(s1)S(=O)(=O)N(CCN1CCOCC1)N=C2`, the melting point was 164 to 166 °C. In the case of `N#Cc1cnn(-c2ncc(C(F)(F)F)cc2Cl)c1C=CC(=O)O`, the melting point is reported as 225 to 228 °C. For `CC1(N2C(=O)c3cccc([N+](=O)[O-])c3C2=O)CCC(=O)NC1=O` (stereo unspecified), the melting point was 265 to 266 °C. With `c1ccc(-c2ccc(Nc3nnc(Cc4ccncc4)c4ccccc34)cc2)cc1` the melting point was 189 to 191 °C. In the case of `CCc1ccc2sc3cc(-c4nnn[nH]4)ccc3c(=O)c2c1`, the melting point is reported as 247 °C. In the case of `COc1cc(CCC(=O)O)ccc1OCc1sc(-c2ccc(C(F)(F)F)cc2)nc1C`, the melting point is reported as 150 to 152 °C. With `COc1ccc(CSc2nnc(-c3ccc4occc4c3)o2)cc1` the melting point was 124 to 125 °C. `CCOP(=O)(OCC)Oc1c(C2CCCCN2CCCCNC(=O)c2ccc(NC(=O)c3ccc(Cl)cc3)cc2)ccc2c1CCCC2` (stereo unspecified) gave a melting point of 200 °C. Work on `COC(=O)c1cc(NS(C)(=O)=O)c2cc(Cc3ccc(F)cc3)cnc2c1O` yielded a melting point of 190 °C. Work on `CCOCc1nc2c(N)nc3cccnc3c2n1CC(C)(C)NC(=O)C1CCCCC1` yielded a melting point of 210 to 211 °C. `CCOC(=O)C(=NOC)c1nc(N)cc(Cl)n1` gave a melting point of 136 to 142 °C. `COc1cc(C=CC=C2SC(=O)NC2=O)ccc1OCc1csc(-c2ccccc2)n1` gave a melting point of 248 to 249 °C. `N#Cc1cnc2sc(CCC(=O)O)cc2c1Nc1ccc2[nH]ccc2c1` gave a melting point of 255 °C. `O=C1N(CCCCN2CCN(C3=NS(=O)(=O)c4ccccc43)CC2)CSC12CCCC2` showed a melting point of 137 to 140 °C. In the case of `CCCCCCC(O)CNCCO` (stereo unspecified), the melting point is reported as 45 °C. For `OCc1cn(Cc2ccc(OCc3coc(-c4ccccc4)n3)cc2)nc1-c1cccs1`, the melting point was 155 to 156 °C. `O=[N+]([O-])c1ccc(OS(=O)(=O)c2ccccc2I)cc1` showed a melting point of 131 to 133 °C. In the case of `CSC1C(=O)Nc2c(C(=O)c3ccccc3F)cccc21` (stereo unspecified), the melting point is reported as 147 to 148 °C. `CCCCCCCCCCCCCCCCCCOc1cc(OCCCOc2ccc(S(C)(=O)=O)cc2)cc(N(CC(=O)O)CC(=O)O)c1` showed a melting point of 118 to 120 °C. With `COc1cc(CC(=O)O)ccc1OCCCc1cn(-c2ccc(C(F)(F)F)cn2)nc1C(C)C` the melting point was 134 to 135 °C. `CCCCCc1ccc(C(=O)Cc2cccc(C#N)c2)cc1` gave a melting point of 73 °C. Compound `Cc1ccc(COc2cccc(C(=O)Nc3ccc(CN4CCCCC4)cc3)c2)cc1` has a melting point of 153 to 155 °C. In the case of `O=C1NCCc2[nH]c3cc(F)ccc3c21`, the melting point is reported as 213 to 215 °C. For `CCc1nc2c(N)nc3ccccc3c2n1CCCNOC`, the melting point was 210 to 213 °C. For `O=c1[nH]c(=O)n([C@@H]2CO[C@@H](CO)O2)cc1/C=C/Br`, the melting point was 75 to 78 °C. Compound `Clc1ccc(-c2ccnc(CN3CCC(c4ccc(Cl)cc4)CC3)c2)cc1` has a melting point of 89 to 91 °C. Compound `O=C1c2ccccc2-c2ccc(Cl)c3cccc1c23` has a melting point of 179 to 190 °C. `CSc1ccc2c(c1)C(SCCBr)Cc1ccccc1O2` (stereo unspecified) showed a melting point of 64 to 66 °C. With `CCC(O)(C#Cc1ncn2c1CN(C)C(=O)c1cc(F)ccc1-2)CC` the melting point was 135 to 136 °C. With `CC(C)[Si](OCCOc1cc(CO)ccc1Br)(C(C)C)C(C)C` the melting point was 62.2 °C. Work on `O=c1c(I)coc2ccccc12` yielded a melting point of 95 to 97 °C. For `CCOC(=O)/C(F)=C/c1ccc(Br)cc1`, the melting point was 59 to 61 °C. In the case of `O=C(O)c1cn(-c2ccc(F)cc2)c2c(F)c(N3CCC(n4ccnn4)C3)c(F)cc2c1=O` (stereo unspecified), the melting point is reported as 303 °C. Work on `FC(F)(F)C(Cl)=NC(c1ccccc1)(c1ccccc1)c1ccccc1` yielded a melting point of 144 to 145 °C. Work on `Cc1ccc(S(=O)(=O)N(CC(=O)OCc2ccccc2)c2ccc(Cl)cc2C(=O)c2ccccc2Cl)cc1` yielded a melting point of 99 to 101 °C. Work on `CCCn1cc2c(n1)-c1c(nc3ccccc3c1N)CC2` yielded a melting point of 225 to 226 °C. `Cc1ccc(-c2ccccc2-c2n[nH]c(=O)o2)cc1` showed a melting point of 123 to 125 °C. In the case of `CC=CC(=O)Nc1ccc(-c2ccncc2)cc1`, the melting point is reported as 247 to 249 °C. `COC(=O)C=Cc1cccc2c3c(n(C)c12)CCN(Cc1nc[nH]c1C)C3=O` showed a melting point of 175 to 178 °C. For `Cc1ccc(S(=O)(=O)OCC2Cc3cccc(-c4ccc(Cl)cc4)c3O2)cc1` (stereo unspecified), the melting point was 130 to 133 °C. In the case of `OCc1ccc(-c2ccc(OC3SCC(O)C(O)C3O)cn2)cc1` (stereo unspecified), the melting point is reported as 215 °C. For `CCOC(=O)Cn1cc(C(=O)Nc2ccc(OCC(C)(C)C)c(C#N)c2)c(C)n1`, the melting point was 240 °C. `CCCn1c(=O)c(-c2ccccc2)c2n(c1=O)CC=CS2` showed a melting point of 142 to 144 °C. `CCCOc1cccc(NC(=O)c2ccccc2C)c1` showed a melting point of 92 to 94 °C. For `CC(C)C(=O)N[C@@H](CSC(=O)C(C)C)C(=O)NCCSC(=O)C(C)C`, the melting point was 94 to 96 °C. With `OC1Cc2ccccc2C1N1CCCCC1` (stereo unspecified) the melting point was 82 °C. For `O=C(Cc1ccc(Br)cn1)Nc1ccccn1`, the melting point was 131 °C. Compound `O=C(NC1CCNCC1)N(CCCN1CCC(Cc2ccccc2)CC1)c1ccccc1` has a melting point of 85 to 87 °C. `Cc1cc2oc(C(=O)O)cc(=O)c2c2c1-c1ccccc1C(C)(C)O2` gave a melting point of 231 to 232 °C. For `O=C(NN1CCCCCC1)C(CS)Cc1ccccc1` (stereo unspecified), the melting point was 82 °C. `COc1ccc(C(=O)Nc2c(Cl)cncc2Cl)cc1SC1CCCC1` showed a melting point of 198 °C. Compound `OC1=CC(=NNc2ccc(F)cc2)CCC1` has a melting point of 175 to 176 °C. For `CONC(=O)c1cccc(-c2nc3ccccc3c(=O)o2)c1`, the melting point was 223 to 226 °C. Work on `COC(=O)c1ccc(CN(O)Cc2ccc(C(=O)OC)cc2)cc1` yielded a melting point of 129 to 131 °C. Compound `CC(C)(C)c1cc(C(=O)Nc2cccc(OCc3cncc(Br)c3)c2)ccc1O` has a melting point of 105 to 111 °C. With `CCN(CC)CCOc1ccc(Nc2ncc3ccc(=O)n(C(C)C)c3n2)cc1` the melting point was 84 to 85 °C. For `Cc1ccc(S(=O)(=O)OCCCC2CCN(C(c3ccccc3)(c3ccccc3)c3ccccc3)CC2)cc1`, the melting point was 131 °C. Work on `N=c1nc(N)c2ncn(Cc3ccccc3)c2c(N)n1` yielded a melting point of 202 to 204 °C. With `CCn1ncc2c(ON=C(C)C)c(C(=O)c3ccc(Cl)cc3)cnc21` the melting point was 112 to 113 °C. In the case of `N#Cc1ccccc1C(=O)c1ccccc1S`, the melting point is reported as 94 °C. In the case of `Cc1ccccc1NC(=O)CN1CC2CCC(C1)N2S(=O)(=O)c1cccc2nonc12`, the melting point is reported as 167 to 168 °C. `Cc1cc([N+](=O)[O-])cnc1CCC#N` gave a melting point of 73 to 74 °C. With `O=C1Nc2cc(F)c(F)cc2N2CCNCC12` (stereo unspecified) the melting point was 226 to 228 °C. For `CN(Cc1cccc(-c2ccc(CC3SC(=O)NC3=O)cc2)c1)C(=O)c1ccc(O)cc1` (stereo unspecified), the melting point was 110 °C. For `CCCC(c1ccc(NC(C)=O)cc1)n1ccnc1` (stereo unspecified), the melting point was 186 °C. `CCCS(=O)(=O)c1cc([C@H]2CC[C@H](c3cc(OC)c(OC)c(OC)c3)O2)cc(OC)c1O` (relative stereo) showed a melting point of 168 to 169 °C. In the case of `CNC(=O)COC(=O)N1CCN(CCOc2ccc(Cl)cc2)CC1`, the melting point is reported as 159 to 161 °C. `CCn1nc2c(n1)C(N1CCN(C)CC1)=Nc1cc(Cl)ccc1N2` showed a melting point of 180 to 182 °C. `CC(=O)N[C@@H](C)COc1ccc2nc(-c3ccc(OCC4CC4)c(Cl)c3)oc2c1` showed a melting point of 156 to 159 °C. With `CCCC[N+]([O-])=Cc1ccc(OCc2ccccc2)c(OC)c1` the melting point was 81.2 °C. `NC(=O)N1C(=O)C(C(=O)c2ccccc2)c2nc(Cl)ccc21` (stereo unspecified) showed a melting point of 220 °C. `Clc1ccc(-c2nc(COc3ccc(CCCn4ccnc4)cc3)co2)cc1` gave a melting point of 116 to 117 °C. With `Cn1nnc2c(N)cc3nc(O)c(O)nc3c21` the melting point was over 300 °C. `O=C(NCCCCCCOC(=O)N1CCCCC1)OC1CCN(C(=O)Oc2ccc(Oc3ccccc3)cc2)CC1` showed a melting point of 92 to 93 °C. Compound `CCCCCOC(=O)C1CC(=O)NN1c1ncccc1Cl` (stereo unspecified) has a melting point of 66 to 68 °C. `O=C1NCCSc2ccsc21` gave a melting point of 186 to 188 °C. Compound `CCCN(CCC)Cc1cnc(-c2ncn3c2[C@@H]2CCN2C(=O)c2ccccc2-3)o1` has a melting point of 132 to 134 °C. In the case of `O=C(O)c1ccc(OCC2CCN(CCOc3ccc4c(c3)OCO4)CC2)cc1`, the melting point is reported as 133 to 136 °C. With `CN1CCC(OC(c2cccc(SCC3=NCCN3)c2)c2nc3ccccc3[nH]2)CC1` (stereo unspecified) the melting point was 62 °C. With `Cc1ccn(-c2ccc(C(=O)N3Cc4ccnn4Cc4ccccc43)c(Cl)c2)n1` the melting point was 187 to 188 °C. Work on `CC(CCC(F)(F)C(C)(C)O)C1CCC2C3CCC4=CC(=O)C=CC4(C)C3CCC12C` (stereo unspecified) yielded a melting point of 176 to 177 °C. `C(=Cc1ccc(-c2ccc(C=Cc3ccccc3)cc2)cc1)c1ccccc1` showed a melting point of 323 to 325 °C. In the case of `COc1c(O)cnc(CNc2nc(C)nc(C)c2Cl)c1C`, the melting point is reported as 220 to 224 °C. Compound `COC(=O)N1C(C(=O)O)CSC1c1ccccc1` (stereo unspecified) has a melting point of 129 to 130 °C. For `COc1ccc(CCNC(=O)CN(C(=O)OCc2ccccc2)c2ccc(C)cc2)cc1OC`, the melting point was 81 to 85 °C. `Cc1cc2c(O)n(CCc3ccc(C(=O)N[C@@H](CCC(=O)O)C(=O)O)cc3)cnc-2n1` gave a melting point of 291 °C. With `COc1ccc(C2(C)C=C(Cl)N=CN2)cc1` (stereo unspecified) the melting point was 65 to 67 °C. `COc1ccc2c(-c3cccc(F)c3F)noc2c1Cl` gave a melting point of 184 to 189 °C. `Nc1ccnc(CCCCN2C(=O)c3ccccc3C2=O)n1` gave a melting point of 139 to 140 °C. `CSc1nc2c(cc1F)c(=O)[nH]c(=O)n2C1CC1` gave a melting point of 220 to 222 °C.
